Measurements taken from patent US8765730B2 (Hoffmann-La Roche Inc, priority 2010, dated 2014).

molecular target: T1, human GPBAR1 receptor (Homo sapiens, UniProt Q8TDU6); assay: functional cAMP assay in CHO-dhfr(minus) cells expressing human GPBAR1 receptors; type: cell-based; conditions: functional cAMP assay, 30 min at 30° C., read-out: human EC50
T1 construct: expressed in transfected cells
T1 sequence (Q8TDU6 1-330): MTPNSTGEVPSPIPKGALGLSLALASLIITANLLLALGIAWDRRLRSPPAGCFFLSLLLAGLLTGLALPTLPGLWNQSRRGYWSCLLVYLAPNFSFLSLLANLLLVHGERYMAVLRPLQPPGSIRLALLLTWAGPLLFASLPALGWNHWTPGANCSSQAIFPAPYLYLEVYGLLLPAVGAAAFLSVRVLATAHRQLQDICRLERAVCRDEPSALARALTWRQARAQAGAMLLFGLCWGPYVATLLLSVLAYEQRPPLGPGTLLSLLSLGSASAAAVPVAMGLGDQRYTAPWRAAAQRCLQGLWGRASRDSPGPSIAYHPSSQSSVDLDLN
Outline: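 Agonist cAMP read-out: stable GPBAR1 CHO-dhfr− clone, 30 min compound exposure at 30° C following 30 min IBMX (1 mM) preincubation in Krebs Ringer bicarbonate. Time-resolved energy-transfer detection gives EC50; parental CHO cells serve as counter-screen.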

EC50 [nM]	SMILES
31	Cc1ccccc1[C@H](C/C(=N\O)c1ccnc(CO)c1)c1ccc(N2CCC(C(=O)O)CC2)cc1 [Example 374, (R,E)-1-(4-(3-(Hydroxyimino)-3-(2-(hydroxymethyl)pyridin-4-yl)-1-o-tolylpropyl)phenyl)-piperidine-4-carboxylic acid]

same assay, conditions: human EC50, functional cAMP assay, 30 min at 30° C.

EC50 [nM]	SMILES
62	Cc1cc(Cl)ccc1C(C/C(=N\O)c1ccc(=O)n(C)c1)c1ccc(OS(C)(=O)=O)c(F)c1 (stereo not shown) [Example 329, Methanesulfonic acid 4-[1-(4-chloro-2-methyl-phenyl)-3-[(E)-hydroxyimino]-3-(1-methyl-6-oxo-1,6-dihydro-pyridin-3-yl)-propyl]-2-fluoro-phenyl ester]
111	Cc1cc(C(=O)O)ccc1-c1ccc(C(C/C(=N\O)c2ccc(=O)n(C)c2)c2ccc(Cl)cc2Cl)cc1 (single isomer, unassigned) [Example 477, 4′-[(−)-1-(2,4-Dichloro-phenyl)-3-[(E)-hydroxyimino]-3-(1-methyl-6-oxo-1,6-dihydro-pyridin-3-yl)-propyl]-2-methyl-biphenyl-4-carboxylic acid]
30	Cn1cc(/C(CC(c2ccc(S(C)(=O)=O)cc2)c2ccccc2Cl)=N/O)ccc1=O (stereo not shown) [Example 249, (E)-5-(3-(2-Chlorophenyl)-1-(hydroxyimino)-3-(4-(methylsulfonyl)phenyl)propyl)-1-methylpyridin-2(1H)-one]
492	CS(=O)(=O)c1cccc(-c2cccc(C(C/C(=N\O)c3ccncc3)c3ccccc3)c2)c1 (stereo not shown) [Example 23, (E)-3-(3′-Methanesulfonyl-biphenyl-3-yl)-3-phenyl-1-pyridin-4-yl-propan-1-one oxime]
810	O/N=C(\CC1c2ccccc2CCc2ccccc21)c1ccncc1 [Example 60, (E)-2-(10,11-Dihydro-5H-dibenzo[a,d]cyclohepten-5-yl)-1-pyridin-4-yl-ethanone oxime]
116	Cc1ccccc1C(C/C(=N\O)c1ccn(C)c(=O)c1)c1ccc(Br)cc1 (stereo not shown) [Example 110, 4-{3-(4-Bromo-phenyl)-1-[(E)-hydroxyimino]-3-o-tolyl-propyl}-1-methyl-1H-pyridin-2-one]
110	Cc1cc(Cl)ccc1C(C/C(=N\O)c1ccc(=O)n(C)c1)c1ccc(N2CCCC2=O)cc1 (stereo not shown) [Example 355, 5-{3-(4-Chloro-2-methyl-phenyl)-1-[(E)-hydroxyimino]-3-[4-(2-oxo-pyrrolidin-1-yl)-phenyl]-propyl}-1-methyl-1H-pyridin-2-one]
4540	Cc1ccccc1C(C/C(=N\O)c1cncc(Br)c1)c1cccc(Br)c1 (stereo not shown) [Example 123, (E)-3-(3-Bromo-phenyl)-1-(5-bromo-pyridin-3-yl)-3-o-tolyl-propan-1-one oxime]
480	Cc1cc(Cl)ccc1C(C/C(=N\O)c1ccc(=O)n(C)c1)c1ccc(-c2ccc(C#N)cc2)cc1 (stereo not shown) [Example 251, (E)-4′-(1-(4-Chloro-2-methylphenyl)-3-(hydroxyimino)-3-(1-methyl-6-oxo-1,6-dihydropyridin-3-yl)propyl)biphenyl-4-carbonitrile]
46	Cc1cc(/C(CC(c2ccc(Br)cc2)c2ccccc2C(F)(F)F)=N/O)ccn1 (stereo not shown) [Example 132, (E)-3-(4-Bromo-phenyl)-1-(2-methyl-pyridin-4-yl)-3-(2-trifluoromethyl-phenyl)-propan-1-one oxime]
371	Cc1cc(/C(C[C@H](c2ccc(C3CCN(C(=O)OC(C)(C)C)CC3)cc2)c2ccc(Cl)cc2C)=N/O)ccn1 [Example 387, (R,E)-tert-Butyl 4-(4-(1-(4-chloro-2-methylphenyl)-3-(hydroxyimino)-3-(2-methylpyridin-4-yl)propyl)phenyl)piperidine-1-carboxylate]
453	CC(C)CC(C/C(=N\O)c1ccc(=O)n(C)c1)c1ccc(Br)cc1 (stereo not shown) [Example 170, 5-{3-(4-Bromo-phenyl)-1-[(E)-hydroxyimino]-5-methyl-hexyl}-1-methyl-1H-pyridin-2-one]
6	Cn1cc(/C(CC(c2ccc(Br)cc2)c2ccc(F)cc2F)=N/O)ccc1=O (stereo not shown) [Example 402, 5-{3-(4-Bromo-phenyl)-3-(2,4-difluoro-phenyl)-1-[(E)-hydroxyimino]-propyl}-1-methyl-1H-pyridin-2-one]
62	Cc1cc(/C(CC(c2ccc(C(=O)NC3CCCCC3)cc2)c2ccc(F)cc2F)=N/O)ccn1 (stereo not shown) [Example 436, N-Cyclohexyl-4-[1-(2,4-difluoro-phenyl)-3-[(E)-hydroxyimino]-3-(2-methyl-pyridin-4-yl)-propyl]-benzamide]
32	Cc1cc(/C(C[C@@H](c2ccc(-c3ccc(C(=O)O)cc3)cc2)c2ccc(Cl)cc2C)=N/O)ccn1 [Example 296, 4′-[(S)-1-(4-Chloro-2-methyl-phenyl)-3-[(E)-hydroxyimino]-3-(2-methyl-pyridin-4-yl)-propyl]-biphenyl-4-carboxylic acid]
18	Cc1cc(/C(C[C@H](c2ccc([C@H]3CC[C@@H](C(=O)O)CC3)cc2)c2ccccc2C)=N/O)ccn1 [Example 492, cis-4-{4-[(R)-3-[(E)-hydroxyimino]-3-(2-methyl-pyridin-4-yl)-1-o-tolyl-propyl]-phenyl}-cyclohexanecarboxylic acid]
2	Cc1cc(/C(C[C@H](c2ccc(N3C[C@@H]4C(C(=O)O)[C@@H]4C3)cc2)c2ccc(F)cc2F)=N/O)ccn1 (single isomer, unassigned) [Example 429]
29	Cc1cc(/C(CC(c2ccc(-c3ccc(C(=O)O)c(F)c3)cc2)c2ccccc2C(F)(F)F)=N/O)ccn1 (stereo not shown) [Example 135, 3-Fluoro-4′-[3-[(E)-hydroxyimino]-3-(2-methyl-pyridin-4-yl)-1-(2-trifluoromethyl-phenyl)-propyl]-biphenyl-4-carboxylic acid]
2	C#Cc1ccc([C@@H](CC(=NO)c2ccnc(C)c2)c2ccccc2C)cc1 [Example 287, (R)-3-(4-Ethynyl-phenyl)-1-(2-methyl-pyridin-4-yl)-3-o-tolyl-propan-1-one oxime]
274	Cc1cc(Cl)ccc1C(C/C(=N\O)c1ccc(=O)n(C)c1)c1ccc(NS(C)(=O)=O)cc1 (stereo not shown) [Example 353, N-{4-[1-(4-Chloro-2-methyl-phenyl)-3-[(E)-hydroxyimino]-3-(1-methyl-6-oxo-1,6-dihydro-pyridin-3-yl)-propyl]phenyl}-methanesulfonamide]
847	Cc1ccccc1C(Cc1ccc(Br)cc1)/C(=N/O)c1ccncc1 (stereo not shown) [Example 43, (Z)-3-(4-Bromo-phenyl)-1-pyridin-4-yl-2-o-tolyl-propan-1-one oxime]
134	Cc1cc(/C(C[C@H](c2ccc(C3=CCN(C(=O)OC(C)(C)C)CC3)cc2)c2ccccc2C)=N/O)ccn1 [Example 372, (R)-tert-Butyl 4-(4-(3-(hydroxyimino)-3-(2-methylpyridin-4-yl)-1-o-tolylpropyl)phenyl)-5,6-dihydropyridine-1(2H)-carboxylate]
23	Cc1cc(/C(C[C@H](c2ccc(CC(=O)NCCO)cc2)c2ccccc2C)=N/O)ccn1 [Example 289, N-(2-Hydroxy-ethyl)-2-{4-[(R)-3-[(E)-hydroxyimino]-3-(2-methyl-pyridin-4-yl)-1-o-tolyl-propyl]-phenyl}-acetamide]
13	Cc1cc(/C(C[C@H](c2ccc(-c3ccc(C(=O)O)cc3)cc2)c2ccc(Cl)cc2C)=N/O)ccn1 [Example 297, 4′-[(R)-1-(4-Chloro-2-methyl-phenyl)-3-[(E)-hydroxyimino]-3-(2-methyl-pyridin-4-yl)-propyl]-biphenyl-4-carboxylic acid]
